Measured values: the NIST ThermoML archive (doi:10.1016/j.fluid.2008.11.014)
Numbers after ± are expanded uncertainties.

Experiments:
[1] = refractive index (Na D-line) (dimensionless); conditions: 298.2 K; 101.33 kPa; Liquid; Standard Abbe refractometry
[2] = 298.2 K; 101.33 kPa; Liquid; Vibrating tube method

| refractive index [1] | mass density [2] | Structure (SMILES) |
| --- | --- | --- |
| 1.3653 ± 0.0007 | 718.79 ± 0.3 kg/m3 | CC(C)OC(C)C [diisopropyl ether] |
| 1.3835 ± 0.0007 | 799.62 ± 0.24 kg/m3 | CCCO [propan-1-ol] |
